Measurements published in US20090232793A1, “Elastase inhibitor and acute leukemia” (YEDA RESEARCH AND DEVELOPEMENT CO., LTD., priority 2004, published 2009).
The star is where a group is joined. MeOSuc = COC(=O)CCC(=O)*; CH2Cl = ClC*

Key:
[1] = tested on: primary AML cells; experiment: proliferation, viable cells by trypan blue exclusion; format: cell-based, human; settings: primary MNC AML cells; EI 10 μg/ml; 3 days in culture
Protocol: (§1) To test the role of elastase in proliferation of AML cells, primary AML cells (1×10^6/ml), AML cell lines (1×10^4/ml) or normal CD34+ enriched cord blood (CB) cells (1×10^5/ml) were grown in RPMI supplemented with 10% FCS with or without elastase inhibitor (10 μg/ml). The number of viable cells was determined on days 0, 1, 3, 5 and 7 using trypan blue exclusion.
(§2) The effect of EI on the proliferative rate of primary MNC AML cells and AML cell lines (ML-2, U937) was evaluated after 3-7 days respectively in culture. […] After 7 days in culture the number of ML2 and U937 was increased and cell proliferation was inhibited by culturing cells in the presence of EI (FIG. 6A).

[2] = tested on: ML-2; experiment: as above; format: cell-based, human; settings: ML2; EI 10 μg/ml; 7 days in culture
Protocol: as §1, §2

[3] = tested on: U937; experiment: as above; format: cell-based, human; settings: EI 10 μg/ml, 7 days in culture
Protocol: as §1, §2

[4] = tested on: AML CXCR4 expression; experiment: cell surface CXCR4 expression on AML cells by FACS; format: cell-based, human; settings: data not shown
Description: To test whether the decreased migration by elastase inhibition is eventually due to reduction in CXCR4 expression, we examined the effect of elastase inhibition on AML CXCR4 expression. […] Thus, it appears that the role of elastase in migration of AML cells is not working via CXCR4 regulation.

[5] = tested on: normal CD34+ enriched cord blood (CB) cells; experiment: proliferation and CD34+/38- percentage of normal cord blood cells; format: cell-based, human
Protocol: Primary AML cells, AML cell lines and human cord blood (CB) cells with or without 10 μg/ml elastase inhibitor (EI), were cultured for 3-7 days and the number of viable cells was determined using trypan blue exclusion (A). Enriched CD34+ CB cells from full term deliveries were grown in RPMI/10% FCS with SCF, FLT3L and IL6. The percentage of CD34+/38− cells from the total enriched CD34+ CB cells cultured with and without EI was determined by FACS (B).
as §1

[6] = tested on: normal CB enriched CD34+ cells; experiment: homing of normal CB CD34+ cells to the BM of B2nmull NOD/SCID mice; format: in vivo; settings: normal human CD34+ enriched cells; EI pre-treated 10 μg/ml; vs untreated cells
Protocol: (§3) More specifically, human primary AML MNC, enriched CD34+ AML or CB cells at the indicated cell doses were suspended in […] RPMI with 10% FCS incubated for 30 minutes in 37° C. either with or without elastase inhibitor (10 μg/ml) before injection to mice via the dorsal tail vein. Mice were sacrificed 16 hours after transplantation, BM cells flushed from both femurs and tibias bones were harvested and resuspended into single-cell suspension. The percentage of human cells was determined by immunostaining with anti-human CD45-FITC mAB (Immuno Quality Products, Groningen, The Netherlands). Human Fc receptors were blocked with human plasma (1%) and murine Fc receptors by anti-mouse CD16-CD32 (Pharmingen) (1:50). Isotype control antibodies were used in order to exclude false positive cells (BD). After staining, the cells were analyzed on a FACS Calibur (BD) using Cell Quest software.
We next examined the homing of normal enriched CD34+ cells after elastase inhibition. In order to analyze similar primitive stem cell populations, CB CD34+ cells were compared to primary enriched CD34+ AML cells of three other patients (1.5-3×10^6) with different FAB subtypes. As with MNC cells from some patients, inhibition of primary enriched CD34+ AML cells was observed. […]

[7] = tested on: HL60 AML cell line; experiment: egress of engrafted HL60 cells from BM into the circulation of NOD/SCID mice; format: in vivo, human
Protocol: (§4) More specifically, human primary AML MNC cells (10-30×10^6) or HL60 AML cell line (20×10^6) was injected into NOD/SCID mice. Two-four weeks later, EI (1 mg) was injected once a day for 4 consecutive days. PB from mice asphyxiated with dry ice was collected by cardiac aspiration in heparinized tubes and BM was collected as mentioned above. Percentage of human cells was determined by immunofluorescence for CD45 as described above.

[8] = tested on: human primary AML MNC cells; experiment: egress of engrafted primary AML cells from BM into the circulation of NOD/SCID mice; format: in vivo; settings: for BM (%) human CD45+ cells / PB (%) human CD45+ cells / PB/BM: EI 1 mg x 4 days
Protocol: In order to test this assumption, primary AML cells (20-40×10^6) were injected into sublethally irradiated NOD/SCID mice to establish human AML-mice chimerism and AML egress from the bone marrow into the circulation was monitored, two-four weeks later, in mice treated with elastase inhibitor as compared to non treated mice.
as §4

[9] = tested on: AML cells, primary and cell lines; experiment: in vitro transwell migration assay of AML cells; format: cell-based, human; settings: for spontaneous migration: in absence of SDF-1, 30 min pre-treatment, data not shown
Protocol: (§5) (A) In vitro transwell migration assay of AML cells, either untreated or treated for 30 minutes with elastase inhibitor, 10 μg/ml EI (MeOSuc-AAPV-CMK) (A), anti elastase Abs (B) or a1-antitrypsin (a1-AT) (C). […] (D) Immunocytochemical analysis of primary AML cells on poly-L-lysine coated surfaces. Cells were pre-treated for 30 minutes with elastase inhibitor (EI) or left untreated, allowed to adhere in the absence (−) or presence of 200 ng/ml SDF-1, fixed and indirectly immunolabeled with anti-CXCR4 and anti-elastase Ab. Original magnification 100×.
Elastase inhibitor decreases SDF-1 induced migration of AML cells. To study the role of elastase in migration of AML cells, we evaluated the effect of elastase inhibition on spontaneous, or SDF-1-induced AML migration by in vitro transwell assay. The migration assay was carried out as follows: a total of […] RPMI supplemented with 10% FCS in the presence or absence of 125 ng/mL recombinant human SDF-1 (rhSDF-1) (Peprotech, Rocky Hill, N.J.) was added to the lower chamber of a Costar 24-well transwell plates with […] pore filters (Corning, N.Y.). One hundred thousand primary MNC leukemic cells or AML cell lines with or without pretreatment for 30 min. with elastase inhibitor (EI) MeOSuc-AAPV-CMK (10 μg/ml Calbiochem, La jolla, Calif.) or monoclonal mouse anti human neutrophil elastase Ab (50-100 ul of 70 μg/ml, Dako, Glostrup, Denmark) were added to the upper chamber and were allowed to migrate to the lower chamber for 4 hours at 37° C. Migrating cells were collected from the lower chamber and counted using a FACSCalibur (Becton Dickinson).

[10] = tested on: primary AML cells; experiment: immunocytochemical analysis of protrusions and cell polarization on poly-L-lysine; format: cell-based, human
Protocol: as §5
When leukemic cells were pre-treated with elastase inhibitor (EI), the formation of SDF-1 induced protrusions was prevented (FIG. 3D). Of note, basal cell polarization in absence of SDF-1 was also abolished by EI.

[11] = tested on: primary human AML cells; experiment: homing of human AML cells to the BM of B2nmull NOD/SCID mice; format: in vivo; settings: for homing into the NOD/SCID mice BM: 30 min incubation with EI 10 μg/ml before injection, 16 hours
Protocol: In order to assess the effect of elastase inhibition on the in vivo migration (or homing) of human AML cells to the BM, primary AML mononuclear cells (MNC) cells (5×10^6) were injected into sublethally irradiated B2nmull NOD/SCID mice, either untreated or after 30 minute incubation with EI […].
as §3

[12] = tested on: primary AML cells; experiment: cell surface elastase expression by FACS after SDF-1; format: cell-based, human; settings: SDF-1 200 ng/ml for 1 and 3 hours
Protocol: (§6) Cell surface elastase on primary AML and cell lines or on normal CB CD34+ enriched cells was analyzed by flow cytometry as follows: AML cells were incubated with polyclonal rabbit anti-human elastase (Biodesign, Kennebunkport, Me.) for 30 min., washed and antibody binding was detected using secondary anti-rabbit-FITC (FIG. 2A upper panel and 2B).
(§7) In order to confirm our assumption, primary AML cells and normal CB CD34+ cells were treated with SDF-1 (200 ng/ml) for 1 and 3 hours, and expression of cell surface elastase was determined by FACS (FIG. 7).

[13] = tested on: normal CB CD34+ cells; experiment: as above; format: cell-based, human; settings: SDF-1 200 ng/ml for 1 and 3 hours
Protocol: as §6, §7

MeOSuc-AAPV-CH2Cl [EI]
number of viable AML cells [1]: significantly decreased | cell proliferation [2]: inhibited | cell proliferation [3]: inhibited | level of cell surface CXCR4 expression [4]: did not change | percentage of primitive progenitor cells CD34+/38− ([5]; 3 days in culture in the presence of cytokines (SCF, FLT3L, IL6) and EI): significantly increased | proliferation rate ([5]; normal CB CD34+ cells, EI 10 μg/ml): enhanced | homing to the murine BM [6]: increased | BM (%) human CD45+ cells ([7]; HL-60, EI 1 mg x 4 days): 4% | PB (%) human CD45+ cells ([7]; HL-60, EI 1 mg x 4 days): 2.4% | PB/BM ([7]; HL-60, EI 1 mg x 4 days): 0.6 | AML cell egress to the PB ([7]; human AML line, EI 1 mg once a day, 4 consecutive days, vs untreated mice): decreased | AML cell egress to the PB ([8]; human primary cells, EI 1 mg once a day, 4 consecutive days, vs untreated mice): decreased | BM (%) human CD45+ cells ([8]; patient #1 M2): 80% | PB (%) human CD45+ cells ([8]; patient #1 M2): 6% | PB/BM ([8]; patient #1 M2): 0.07 | BM (%) human CD45+ cells ([8]; patient #2 M4): 50% | PB (%) human CD45+ cells ([8]; patient #2 M4): 2.5% | PB/BM ([8]; patient #2 M4): 0.05 | BM (%) human CD45+ cells ([8]; patient #3 M4): 12.7% | PB (%) human CD45+ cells ([8]; patient #3 M4): 0.5% | PB/BM ([8]; patient #3 M4): 0.039 | BM (%) human CD45+ cells ([8]; patient #4): 16.9% | PB (%) human CD45+ cells ([8]; patient #4): 0.25% | PB/BM ([8]; patient #4): 0.014 | spontaneous migration [9]: also reduced | SDF-1 dependent migration of the cells ([9]; pre-incubation 30 min with 5-10 μg/ml EI, toward 125 ng/ml SDF-1, 4 hours, p=0.039): significantly reduced | formation of SDF-1 induced protrusions ([10]; 30 min pre-treatment, 200 ng/ml SDF-1): prevented | basal cell polarization ([10]; in absence of SDF-1): abolished | homing into the NOD/SCID mice BM ([11]; M2 and M4 primary AML cells, vs untreated cells): significantly decreased | homing to the murine BM ([11]; enriched CD34+ AML progenitors, EI pre-treated 10 μg/ml, vs untreated cells): decreased | homing into the NOD/SCID mice BM ([11]; primary M1 and M5 AML cells): not inhibited but rather increased

SDF-1: chemokine, also called pre-B-cell growth-stimulating factor; recombinant human SDF-1 (Peprotech)
cell surface elastase expression [12]: increase | cell surface elastase expression [13]: decreases

a1-antitrypsin
spontaneous migration [9]: affected
